Test results reported in patent publication US20250387381A1, “COMPOSITIONS AND METHODS FOR ENHANCED DRUG LOADING OF LONG-ACTING IN SITU FORMING IMPLANTS AND USES THEREOF” (The University of North Carolina at Chapel Hill, priority 2022, published 2025).
≈ marks a conversion by molar mass, not a printed value.

What was measured:
[1] = Stability of LA-RFB formulations stored at room temperature in the dark; type: physicochemical; details: solution of RFB in DMSO without polymer, same storage
Experimental: At predetermined time points (3, 4, 6, 9, 12, 15 months of incubation) 10 μL of formulation was diluted in 1 mL of DMSO, then further diluted at 1:1000 in DMSO for analysis by UV-vis absorbance spectrometer and HPLC to measure the drug concentration and drug degradation. As a control, RFB dissolved in DMSO (20 μg mL^−1 RFB solution) was incubated in the dark at RT.

[2] = RFB saturated solubility in DMSO and NMP with or without amphiphilic additives; details: for solubility at 1 day: organic solvent or mixture, thermodynamic from solid
Mtb = details: cited from earlier work
[3] = human, in vivo, po, 150 mg; cited from earlier work

CO[C@H]1/C=C/O[C@@]2(C)Oc3c(C)c(O)c4c(c3C2=O)C2=NC3(CCN(CC(C)C)CC3)NC2=C(NC(=O)/C(C)=C\C=C\[C@H](C)[C@H](O)[C@@H](C)[C@@H](O)[C@@H](C)[C@H](OC(C)=O)[C@@H]1C)C4=O [RFB, Rifabutin]
Residual RFB after 3 months [1]: 67%
Residual RFB after 4 months [1]: 53%
Residual RFB after 6 months [1]: 25%
Highest RFB solubility in DMSO with Kolliphor HS 15 ([2]; 0.45% Kolliphor HS 15): 564±7 mg RFB per mL of DMSO
solubility at 1 day ([2]; Highest RFB solubility in NMP with Kolliphor HS 15, 8.8% Kolliphor HS 15): 702 ± 10 mg/mL (≈ 829 mM)
solubility at 1 day ([2]; RFB maximum solubility in DMSO, DMSO alone, room temperature, mean±SD): 202 ± 22 mg/mL (≈ 238 mM)
solubility at 1 day ([2]; RFB maximum solubility in NMP, NMP without additive, room temperature, mean±SD): 148 ± 34 mg/mL (≈ 175 mM)
RFB MIC (Mtb): 0.064 µg/mL
Cmax [3]: 460 ng/mL
